Patent US4287194A, “Compositions with potentiated hypotensive effects” (priority 1978, dated 1981)
“And” between values parts separate entries of the source, which are not always exact repeats. Equal entries are not always repeated.

How the values were obtained:
[1] = system: genetically hypertensive awake rats; test: Hypotensive effect on awake rats suffering from genetic hypertension (method of Eaton, modified); format: in vivo, Wistar-Okamoto rats
[2] = Oral acute toxicity (LD50) of the individual components, one week observation; conditions: mouse, in vivo
Method: Based on the data given in points 1 and 2 above it can be stated that a considerable potentiating synergism appears with respect to the hypotensive effect when applying the compounds of formula (I) in combination with those of formula (V). In the following it was investigated whether this synergism also appears with respect to the toxicity. In the first test series the LD50 values of the individual components were determined on CFLP-mice. The compounds were administered orally, and the animals were kept under observation for one week. The LD50 values of the individual compounds are as follows: […]

[3] = system: awake dogs with renal hypertension; test: Hypotensive effect on awake dogs suffering from renal hypertension (Grollman operation); format: in vivo
Excerpt: (2) Determination of the hypotensive effect on awake dogs suffering from renal hypertension

[4] = Toxicity (mortality) of combinations: pre-treatment for one hour with 11,473 or 11,121, then pindolol; parameters: species or system CFLP-mice; conditions: mouse, in vivo, po
Method: Based on the data given in points 1 and 2 above it can be stated that a considerable potentiating synergism appears with respect to the hypotensive effect when applying the compounds of formula (I) in combination with those of formula (V). In the following it was investigated whether this synergism also appears with respect to the toxicity. In the first test series the LD50 values of the individual components were determined on CFLP-mice. The compounds were administered orally, and the animals were kept under observation for one week. The LD50 values of the individual compounds are as follows:
To determine the toxicity values of the combinations dosages calculated on the basis of the isobole construction principle were applied. The animals were pre-treated for one hour with various dosages of 11,473 or 11,121, and then varying dosages of pindolol were administered.

With `CCOC(=O)CC(C)=NNc1ccc(Cl)nn1` [11,473, N^1-(3-Chloro-6-pyridazinyl)-N^2-(1-carbethoxy-2-propylidene)-hydrazine] the “Blood pressure after 2 hours” value ([1]; 10 mg/kg p.o.) was 194.0 mmHg, the “Blood pressure after 5 hours” value ([1]; 10 mg/kg p.o.) was 197.0 mmHg and the “Blood pressure after 24 hours” value ([1]; 10 mg/kg p.o.) was 198.0 mmHg. The “Blood pressure, basal value” ([1]; 10 mg/kg p.o., basal value) was 195.0 mmHg and the LD50 at 168 h ([2]; p.o., one week observation) was 360 mg/kg.
For `Cl.NOCc1ccc([N+](=O)[O-])c(O)c1` [11,130, 3-hydroxy-4-nitro-benzyloxyamine hydrochloride], the “Blood pressure after 2 hours” value ([1]; 20 mg/kg p.o.) was 183.0 mmHg, the “Blood pressure after 5 hours” value ([1]; 20 mg/kg p.o.) was 176.0 mmHg and the “Blood pressure after 24 hours” value ([1]; 20 mg/kg p.o.) was 172.0 mmHg. For the same compound, the “Blood pressure, basal value” ([1]; 20 mg/kg p.o., basal value) was 174.0 mmHg.
With `CC(C)NCC(O)COc1cccc2ccccc12.Cl` (stereo not drawn) [Propranolol, 1-(1-Naphthyloxy)-3-isopropylamino-2-propanol hydrochloride] the “Blood pressure after 2 hours” value ([1]; 1 mg/kg p.o.) was 170.0 mmHg, the “Blood pressure after 5 hours” value ([1]; 1 mg/kg p.o.) was 168.7 mmHg and the “Blood pressure after 24 hours” value ([1]; 1 mg/kg p.o.) was 157.5 mmHg. For the same compound, the “Blood pressure, basal value” ([1]; 1 mg/kg p.o., basal value) was 167.5 mmHg, the “Blood pressure after 2 hours” value ([1]; 5 mg/kg p.o.) was 178.6 mmHg and the “Blood pressure after 5 hours” value ([1]; 5 mg/kg p.o.) was 175.9 mmHg. For the same compound, the “Blood pressure after 24 hours” value ([1]; 5 mg/kg p.o.) was 181.8 mmHg, the “Blood pressure, basal value” ([1]; 5 mg/kg p.o., basal value) was 186.4 mmHg and the “Blood pressure after 2 hours” value ([1]; 10 mg/kg p.o.) was 170.0 mmHg. The “Blood pressure after 5 hours” value ([1]; 10 mg/kg p.o.) was 148.3 mmHg, the “Blood pressure after 24 hours” value ([1]; 10 mg/kg p.o.) was 163.7 mmHg and the “Blood pressure, basal value” ([1]; 10 mg/kg p.o., basal value) was 178.0 mmHg. For the same compound, the ED15 ([1]; Rattus norvegicus, po) was about 10 mg/kg.
In the case of `COC(=O)c1ccc(O)c(CON)c1.Cl` [11,121, 2-hydroxy-5-carbomethoxy-benzyloxyamine hydrochloride], the “Blood pressure after 2 hours” value ([1]; 50 mg/kg p.o.) is reported as 170.0 mmHg, the “Blood pressure after 5 hours” value ([1]; 50 mg/kg p.o.) is reported as 163.0 mmHg and the “Blood pressure after 24 hours” value ([1]; 50 mg/kg p.o.) is reported as 169.0 mmHg. The “Blood pressure, basal value” ([1]; 50 mg/kg p.o., basal value) was 168.2 mmHg, the LD50 at 168 h ([2]; p.o., one week observation) was 2900 mg/kg and the “Blood pressure after 1 hour” value ([3]; 5 mg/kg p.o.) was 170.0 mmHg. The “Blood pressure after 2 hours” value ([3]; 5 mg/kg p.o.) was 167.5 mmHg, the “Blood pressure after 3 hours” value ([3]; 5 mg/kg p.o.) was 175.0 mmHg and the “Blood pressure after 4 hours” value ([3]; 5 mg/kg p.o.) was 165.0 mmHg. The “Blood pressure after 5 hours” value ([3]; 5 mg/kg p.o.) was 172.5 mmHg, the “Blood pressure after 24 hours” value ([3]; 5 mg/kg p.o.) was 165.0 mmHg and the “Blood pressure, basal value” ([3]; 5 mg/kg p.o.) was 165.0 mmHg.
In the case of `CC(C)NCC(O)COc1cccc2[nH]ccc12.Cl` (stereo not drawn) [Pindolol, 1-(4-indolyloxy)-3-isopropylamino-2-propanol hydrochloride], the “Blood pressure after 2 hours” value ([1]; 0.25 mg/kg p.o., hydrochloride) is reported as 180.8 mmHg and 181.6 mmHg, the “Blood pressure after 5 hours” value ([1]; 0.25 mg/kg p.o., hydrochloride) is reported as 164.9 mmHg and 168.8 mmHg and the “Blood pressure after 24 hours” value ([1]; 0.25 mg/kg p.o., hydrochloride) is reported as 183.4 mmHg and 188.8 mmHg. The “Blood pressure, basal value” ([1]; 0.25 mg/kg p.o., basal value (before treatment), hydrochloride) was 182.2 mmHg and 184.4 mmHg, the “Blood pressure after 2 hours” value ([1]; 0.5 mg/kg p.o., hydrochloride) was 161.4 mmHg and 191.2 mmHg and 172.1 mmHg and the “Blood pressure after 5 hours” value ([1]; 0.5 mg/kg p.o., hydrochloride) was 160.5 mmHg and 188.3 mmHg and 160.8 mmHg. The “Blood pressure after 24 hours” value ([1]; 0.5 mg/kg p.o., hydrochloride) was 150.5 mmHg and 188.9 mmHg and 188.6 mmHg, the “Blood pressure, basal value” ([1]; 0.5 mg/kg p.o., basal value, hydrochloride) was 165.0 mmHg and 200.0 mmHg and 200.3 mmHg and the “Blood pressure after 2 hours” value ([1]; 1 mg/kg p.o.) was 135.0 mmHg. The “Blood pressure after 5 hours” value ([1]; 1 mg/kg p.o.) was 135.0 mmHg, the “Blood pressure after 24 hours” value ([1]; 1 mg/kg p.o.) was 151.1 mmHg and the “Blood pressure, basal value” ([1]; 1 mg/kg p.o., basal value) was 164.4 mmHg. For the same compound, the “Blood pressure after 2 hours” value ([1]; 5 mg/kg p.o.) was 154.5 mmHg, the “Blood pressure after 5 hours” value ([1]; 5 mg/kg p.o.) was 124.5 mmHg and the “Blood pressure after 24 hours” value ([1]; 5 mg/kg p.o.) was 161.0 mmHg. For the same compound, the “Blood pressure, basal value” ([1]; 5 mg/kg p.o., basal value) was 172.5 mmHg, the ED30 ([1]; Rattus norvegicus, po, read-out: ED30% (dosage which decreases the blood pressure by 30% related to the value before treatment), p.o., given alone) was about 5 mg/kg and the “ED30% (dosage which decreases the blood pressure by 30% related to the value before treatment)” value ([1]; p.o., given alone, hydrochloride) was 5 mg/kg. For the same compound, the mortality ([4]; pindolol alone 60 mg/kg p.o.) was 0%, the mortality ([4]; pindolol alone 90 mg/kg p.o.) was 0% and the mortality ([4]; pindolol alone 135 mg/kg p.o.) was 8%. The mortality ([4]; pindolol alone 200 mg/kg p.o.) was 16%, the mortality ([4]; pindolol alone 300 mg/kg p.o.) was 46% and the mortality ([4]; pindolol alone 450 mg/kg p.o.) was 75%. The LD50 at 168 h [2] was 300 mg/kg, the “Blood pressure after 1 hour” value ([3]; 0.1 mg/kg p.o.) was 133.3 mmHg and the “Blood pressure after 2 hours” value ([3]; 0.1 mg/kg p.o.) was 133.3 mmHg. For the same compound, the “Blood pressure after 3 hours” value ([3]; 0.1 mg/kg p.o.) was 153.0 mmHg, the “Blood pressure after 4 hours” value ([3]; 0.1 mg/kg p.o.) was 156.7 mmHg and the “Blood pressure after 5 hours” value ([3]; 0.1 mg/kg p.o.) was 160.0 mmHg. The “Blood pressure after 24 hours” value ([3]; 0.1 mg/kg p.o.) was 153.3 mmHg and the “Blood pressure, basal value” ([3]; 0.1 mg/kg p.o.) was 156.7 mmHg.
